According to patent EP0112633A2, “Novel 5-thiaprostaglandin, process for production thereof, and pharmaceutical use thereof” (TEIJIN LIMITED, priority 1982, dated 1984):
Converted amounts (≈) assume the structure as drawn. Like-named read-outs stand apart in the source and are kept apart here.

How the values were obtained:
[1] = tested on: L1210 leukemia cells; experiment: Inhibition of proliferation of L1210 leukemia cells (trypan blue count of surviving cells after 4 days); type: cell-based; conditions: RPMI medium with 10% FCS, 37°C, ratio of proliferation against 0.1% ethanol control
Method: Measurement of the action of inhibiting proliferation of […] leukemia cell:-
L1210 leukemia cells were added to an RPMI medium containing 10% FCS (fetal calf serum), and the concentration of the cells was adjusted to 1 × 10^5 cells/ml. […] Prior to use, the final concentration of the ethanol solution was adjusted to less than 0.1%, and it was added to the culture medium. The culture medium was then maintained at 37°C in a stationary condition for 4 days. After the cultivation, the number of surviving cells was measured by dyeing with trypan flue. As a control, 0.1% ethanol was used. A dose-reaction curve was plotted from the ratios of proliferation against the control, and IC50 was determined.

[2] = tested on: platelet aggregation; experiment: In vitro inhibition of ADP-induced platelet aggregation in platelet-rich plasma (aggregometer); type: cell-based, Japanese domestic white male rabbits
Method: in vitro inhibitory activity of platelet aggregation:-
The in vitro platelet aggregation imhibiting activity of the compounds of the invention were examined by using rabbits. Blood was withdrawn from the ear vein of Japanese domestic white male rabbits weighing 2.5 to 3.5 kg. A mixture of a 3.8% trisodium citrate solution and the blood in a ratio of 1:9 was centrifuged at a speed of 1000 rpm for 10 minutes. The upper layer was separated as platelet- rich plasma (PRP). The lower layer was further centrifuged at a speed of 28000 rpm for 10 minutes. The upper layer was separated as platelet-poor plasma (PPP). The number of platelets was adjusted to 6 x 10^5/µℓ to 7 x 10^5/µℓ by diluting the PRP with PPP. 25 microliters of the test compounds prepared as shown below was added in an amount of 25 to 250 microliters of PRP after the adjustment, and the mixture was pre-incubated at 37°C for 2 minutes, and then 10 µM (final) of ADP was added. By using an aggregometer, changes in transmission were recorded.
The drug was dissolved in ethanol to a concentration of 10 mg/mt, and successively diluted with phosphate buffer (pH 7.4) prior to use.
The rate of inhibition of platelet aggregation was determined from the following equation. [formula] • T: the transmittance of the system containing the phosphate buffer, • T : the transmittance of the system to which the test drug was added.
The minumum concentration of the drug which inhibited more than 50% of platelet aggregation was shown as an IC50 value.

[3] = tested on: ethanol ulcer; experiment: Ethanol ulcer test (inhibitory activity on ethanol ulcer); type: in vivo, SD-strain rats; conditions: rats; for Ulcer index (mm): 75% ethanol 30 min later, stomach examined 1 h later; for ED50: p.o., ethanol ulcer
Method: Measurement of inhibitry activity on ethanol ulcer:- An ethanol ulcer test was carried out by the following processure. SD-strain rats (body weight 200 to 220 g; 7 weeks old) were fasted for 24 hours, and a solution of each of the test compounds in physiological saline buffered with phosphate buffer at pH 7.5 was orally administered. Thirty minutes after the administration, 75% ethanol was orally administered in a dose of […]. One hour later, the abdomen was incised to isolate the stomach. […] The total of these lengths was defined as the ulcer index. A control group was given physiological saline buffered with phosphate buffer (pH 7.5) and 75% ethanol.

[4] = tested on: blood pressure; experiment: Hypotensive activity by intravenous injection under anesthesia; type: in vivo, Male wister rats; conditions: anesthetized rats, i.v.; dosage which caused a 20% lowering of the mean blood pressure
Method: Measurement of the hypotensive activity:-
The actions of the 5-thiaprostaglandin of the invention on the blood pressure was examined by intravenous injection under anesthesia.
Male wister rats weighing about 250 g were used. Urethane (500 mg/kg) and a-chloralose (100 mg/kg) were intraperitoneally administered to the rats. The rats were anesthetized and fixed in place.
Each of the test compounds was dissolved in a small amount of ethanol and diluted with physiological saline to adjust the final ethanol concentration to not more than 5%. The solution was intravenously injected into the rats through a catheter inserted into the femoral vein.
The blood pressure of the rats was measured by a pressure transducer through a catheter inserted into the carotid artery of the rats.
The action of the test compound on the blood pressure was expressed as the dosage (ED20, u/kg) of the test compound which caused a 20% lowering of the mean blood pressure before administration of the compound.

5-thiaprostaglandin E1 methyl ester
IC50 [1]: 0.6 µg/mL

17(S),20-dimethyl-5-thiaprostaglandin E1 methyl ester
IC50 ([2]; rabbit PRP, 10 µM (final) ADP, minimum concentration which inhibited more than 50% of platelet aggregation): 0.33 µg/mL | Ulcer inhibiting rate (%) ([3]; p.o. 0.3 µg/kg): 46.8% | Ulcer index (mm) ([3]; p.o. 0.3 µg/kg): 18.4 ±4.3 mm | Ulcer inhibiting rate (%) ([3]; p.o. 1 µg/kg): 97.7% | Ulcer index (mm) ([3]; p.o. 1 µg/kg): 0.8 ±0.6 mm | Ulcer inhibiting rate (%) ([3]; p.o. 3 µg/kg): 100% | Ulcer index (mm) ([3]; p.o. 3 µg/kg): 0 mm | ED50 [3]: 0.35 µg/kg | ED20 [4]: 2.7 µg/kg

CCCCCC(O)C=CC1C=CC(=O)C1=CCSCCCC(=O)OC (centres unmarked) [12-epimer of (7E)-Δ^7-5-thiaprostaglandin A1 methyl ester]
IC50 [1]: 0.3 µg/mL

CCCC[C@@H](C)C[C@H](O)/C=C/[C@H]1[C@H](O)CC(=O)[C@@H]1CCSCCCC(=O)OC [17(R),20-dimethyl-5-thiaprostaglandin E1 methyl ester]
IC50 ([2]; Oryctolagus cuniculus, rabbit PRP, 10 µM (final) ADP, minimum concentration which inhibited more than 50% of platelet aggregation, read-out: IC50): 0.36 µg/mL (≈ 0.868 µM)

CCCCC[C@H](O)/C=C/[C@H]1C=CC(=O)/C1=C/CSCCCC(=O)OC [(7E)-Δ^7-5-thiaprostaglandin A1 methyl ester]
IC50 ([1]; Mus musculus, 96 h, read-out: IC50): 0.2 µg/mL

CCCCC[C@H](O)/C=C/[C@H]1[C@H](O)CC(=O)[C@@H]1CCCCCCC(=O)O [Prostaglandin E1, reference compound]
IC50 ([2]; Oryctolagus cuniculus, Platelet, in vitro, ADP 10 µM (printed "ADPlOpM"), read-out: inhibiting platelet aggregation activity (IC50)): 0.03 µg/mL (≈ 0.0846 µM) | inhibition at 0.003 mg/kg ([3]; Rattus norvegicus, po, p.o. 3 µg/kg, read-out: Ulcer inhibiting rate (%)): 50% | inhibition at 0.01 mg/kg ([3]; Rattus norvegicus, po, p.o. 10 µg/kg, read-out: Ulcer inhibiting rate (%)): 96.2% | ED50 ([3]; Rattus norvegicus, po, read-out: ED50): 3 µg/kg | Ulcer index (mm) ([3]; p.o. 3 µg/kg): 17.1 ±5.5 mm | Ulcer index (mm) ([3]; p.o. 10 µg/kg): 1.3 ±0.8 mm

(7E)-Δ^7-5-thiaprostaglandin E1 methyl ester and its 15-epimer [A mixture of (7E)-Δ^7-5-thiaprostaglandin E1 methyl ester of its 15-epimer]
IC50 [1]: 0.4 µg/mL
